Measurements: patent publication US20250042916A1 (ACONCAGUA BIO, INC., priority 2023, published 2025)

Biological target: human calcitonin receptor (CTR) and RAMP3 (AMY3) in COS-7 cells (Homo sapiens, UniProt O60896+P30988)
Assay: Amylin Receptor cAMP Assay I
Format: cell-based
Conditions: values marked *: Amylin Receptor cAMP Assay I; COS-7/AMY3 cells; read-out: Amylin Receptor cAMP Stimulation Activity: EC50
Source text: Amylin Receptor cAMP Assay I
AMYRs are heterodimers of the class B calcitonin (CT) G-protein-coupled receptor (CTR) and receptor activity-modifying proteins (RAMPs). All three RAMPs can interact with the CTR and form AMY1, AMY2, AMY3 with RAMP1, RAMP2 and RAMP3, respectively. Like other class B1 GPCRs, the CT receptor family is canonically coupled to Gs-mediated cAMP production, and measurement of cAMP accumulation has been the primary assay used to determine peptide selectivity and potency.
To optimize functional activity directed toward Gas coupling, COS-7 cells were stably transfected with human calcitonin receptor (CTR) and RAMP3, simultaneously. 100× concentration of compound working solutions were prepared (Agilent Technologies Bravo) with 4-fold serial dilution in 384-well Echo LDV plate (Labcyte, Cat #LP-0200). 100 nL/well 100× concentration of compound working solutions were moved to 384-well white low volume plate (Greiner, Cat #784075) using Labcyte ECHO550. 1×10^5 cells/mL COS-7/CTR or COS-7/AMY3 (HD Biosciences) cell suspensions prepared with assay buffer [DPBS containing 0.5 mM IBMX (Sigma, Cat #15879) and 0.1% BSA (GENVIEW, Cat #FA016-100 g)], 10 μL cell suspensions were added to each well of previous generated assay plate which already contains 100 nL compound at 100× concentration using ThermoFisher Multidrop Combi (1000 cells/well). Seal the plate and incubate at 37° C. with 5% CO2 for 30 min.
After incubation, the cAMP assay signal was generated using cAMP Hi-range Kit (Cisbio). 5 μL cAMP-d2 working solution was added to each well, followed by 5 μL Anti-cAMP antibody-cryptate working solution which was added to each well using ThermoFisher Multidrop Combi. The samples were then incubated at room temperature for 1 hour protected from light. the fluorescence was read at 665 and 615 nm with Reader PerkinElmer EnVision.

Chain of human calcitonin receptor (CTR) and RAMP3 (AMY3) in COS-7 cells (P30988 25-474): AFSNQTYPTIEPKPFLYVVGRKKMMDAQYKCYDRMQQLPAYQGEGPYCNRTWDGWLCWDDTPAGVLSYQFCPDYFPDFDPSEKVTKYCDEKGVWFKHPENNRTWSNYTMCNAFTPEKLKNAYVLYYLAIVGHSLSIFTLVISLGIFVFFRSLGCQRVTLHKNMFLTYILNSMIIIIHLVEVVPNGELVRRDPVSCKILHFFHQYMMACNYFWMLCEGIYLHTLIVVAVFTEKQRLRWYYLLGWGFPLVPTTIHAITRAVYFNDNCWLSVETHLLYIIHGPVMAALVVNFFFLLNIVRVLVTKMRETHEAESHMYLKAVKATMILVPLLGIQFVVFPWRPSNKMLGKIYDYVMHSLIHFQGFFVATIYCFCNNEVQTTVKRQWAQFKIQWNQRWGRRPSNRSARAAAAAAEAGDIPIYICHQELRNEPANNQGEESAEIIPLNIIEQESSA
Chain of human calcitonin receptor (CTR) and RAMP3 (AMY3) in COS-7 cells (O60896 24-148): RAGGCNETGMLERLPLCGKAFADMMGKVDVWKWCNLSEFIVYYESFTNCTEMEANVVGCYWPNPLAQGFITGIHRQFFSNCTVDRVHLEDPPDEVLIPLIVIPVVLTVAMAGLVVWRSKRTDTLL

Row | SMILES | EC50
1 | CC(C)Cc1nc(CCc2ccc(F)cc2)c(-c2nc(C(C)C)no2)c(-c2ccc(C(=O)NCc3ccc(F)c(F)c3)s2)c1C(N)=O [Compound 103, N-(3,4-difluorophenyl)methyl-5-{5-carbamoyl-2-[2-(p-fluorophenyl)ethyl]-6-isobutyl-3-(3-isopropyl-1,2,4-oxadiazol-5-yl)-4-pyridyl}-2-thenamide] | 314 nM
2 | CC(C)Cc1nc(CCc2ccc(F)cc2)c(-c2nc(C(F)(F)F)no2)c(-c2ccc(C(=O)NCc3ccc(F)c(F)c3)s2)c1C(N)=O [Compound 105, N-(3,4-difluorophenyl)methyl-5-{5-carbamoyl-2-[2-(p-fluorophenyl)ethyl]-6-isobutyl-3-[3-(trifluoromethyl)-1,2,4-oxadiazol-5-yl]-4-pyridyl}-2-thenamide] | 591 nM
3 | Cc1nnc(-c2c(CCCC(C)C)nc(CC(C)C)c(C(N)=O)c2-c2ccc(C(=O)NCc3ccc(F)c(F)c3)s2)o1 [Compound 108, 4-(5-((3,4-difluorobenzyl)carbamoyl)thiophen-2-yl)-2-isobutyl-5-(5-methyl-1,3,4-oxadiazol-2-yl)-6-(4-methylpentyl)nicotinamide] | 70.7 nM
4 | Cc1nnc(-c2c(CC(C)C)nc(CC(C)C)c(C(N)=O)c2-c2ccc(C(=O)NCc3ccc(F)c(F)c3)s2)o1 [Compound 111, 4-(5-((3,4-difluorobenzyl)carbamoyl)thiophen-2-yl)-2,6-diisobutyl-5-(5-methyl-1,3,4-oxadiazol-2-yl)nicotinamide] | 650 nM
5 | CCc1nc(CC(C)C)c(C(N)=O)c(-c2ccc(C(=O)NCc3ccc(F)c(F)c3)s2)c1-c1nnc(C)o1 [Compound 112, 4-[5-[(3,4-difluorophenyl)methylcarbamoyl]-2-thienyl]-6-ethyl-2-isobutyl-5-(5-methyl-1,3,4-oxadiazol-2-yl)pyridine-3-carboxamide] | > 11400 nM
6 | COc1cccc(CNC(=O)c2ccc(-c3c(C(N)=O)c(CC(C)C)nc(CCc4ccc(F)cc4)c3-c3nnc(C)o3)s2)c1 [Compound 113, N-(m-methoxyphenyl)methyl-5-{5-carbamoyl-2-[2-(p-fluorophenyl)ethyl]-6-isobutyl-3-(5-methyl-1,3,4-oxadiazol-2-yl)-4-pyridyl}-2-thenamide] | 6.2 nM
7 | COc1cc(CNC(=O)c2ccc(-c3c(C(N)=O)c(CC(C)C)nc(CCc4ccc(F)cc4)c3-c3nnc(C)o3)s2)ccc1F [Compound 117, N-[(4-fluoro-3-methoxyphenyl)methyl]-5-{5-carbamoyl-2-[2-(p-fluorophenyl)ethyl]-6-isobutyl-3-(5-methyl-1,3,4-oxadiazol-2-yl)-4-pyridyl}-2-thenamide] | 40.2 nM
8 | Cc1nnc(-c2c(CCc3ccc(F)cc3)nc(CC(C)C)c(C(N)=O)c2-c2ccc(C(=O)N[C@@H]3CCc4c(F)cccc43)s2)o1 [Compound 119, (R)-4-(5-((4-fluoro-2,3-dihydro-1H-inden-1-yl)carbamoyl)thiophen-2-yl)-6-(4-fluorophenethyl)-2-isobutyl-5-(5-methyl-1,3,4-oxadiazol-2-yl)nicotinamide] | 2.7 nM

Next, values leading:

Row | EC50 | SMILES
9 | 84.7 nM | Cc1noc(-c2c(CCc3ccc(F)cc3)nc(CC(C)C)c(C(N)=O)c2-c2ccc(C(=O)N[C@@H]3CCc4ccccc43)s2)n1 [Compound 101, N—[(R)-1-indanyl]-5-{5-carbamoyl-2-[2-(p-fluorophenyl)ethyl]-6-isobutyl-3-(3-methyl-1,2,4-oxadiazol-5-yl)-4-pyridyl}-2-thenamide]
10 | 85.9 nM | Cc1noc(-c2c(CCc3ccc(F)cc3)nc(CC(C)C)c(C(N)=O)c2-c2ccc(C(=O)NCc3ccc(F)c(F)c3)s2)n1 [Compound 102, N-(3,4-difluorophenyl)methyl-5-{5-carbamoyl-2-[2-(p-fluorophenyl)ethyl]-6-isobutyl-3-(3-methyl-1,2,4-oxadiazol-5-yl)-4-pyridyl}-2-thenamide]
11 | 444 nM | Cc1noc(-c2c(CCc3ccc(F)cc3)nc(CC(C)C)c(C(N)=O)c2-c2ccc(-c3cn(Cc4ccc(F)c(F)c4)nn3)s2)n1 [Compound 104, 4-(5-{1-[(3,4-difluorophenyl)methyl]-1H-1,2,3-triazol-4-yl}-2-thienyl)-6-[2-(p-fluorophenyl)ethyl]-2-isobutyl-5-(3-methyl-1,2,4-oxadiazol-5-yl)nicotinamide]
12 | 20 nM | Cc1nnc(-c2c(CCC3CCCCC3)nc(CC(C)C)c(C(N)=O)c2-c2ccc(C(=O)NCc3ccc(F)c(F)c3)s2)o1 [Compound 109, 6-(2-cyclohexylethyl)-4-(5-((3,4-difluorobenzyl)carbamoyl)thiophen-2-yl)-2-isobutyl-5-(5-methyl-1,3,4-oxadiazol-2-yl)nicotinamide]
13 | 74.1 nM | Cc1nnc(-c2c(Cc3ccc(F)cc3)nc(CC(C)C)c(C(N)=O)c2-c2ccc(C(=O)NCc3ccc(F)c(F)c3)s2)o1 [Compound 110, 4-(5-((3,4-difluorobenzyl)carbamoyl)thiophen-2-yl)-6-(4-fluorobenzyl)-2-isobutyl-5-(5-methyl-1,3,4-oxadiazol-2-yl)nicotinamide]
14 | 323 nM | COc1ccc(CNC(=O)c2ccc(-c3c(C(N)=O)c(CC(C)C)nc(CCc4ccc(F)cc4)c3-c3nnc(C)o3)s2)cc1 [Compound 114, N-(p-methoxyphenyl)methyl-5-{5-carbamoyl-2-[2-(p-fluorophenyl)ethyl]-6-isobutyl-3-(5-methyl-1,3,4-oxadiazol-2-yl)-4-pyridyl}-2-thenamide]
15 | 85 nM | Cc1nnc(-c2c(CCc3ccc(F)cc3)nc(CC(C)C)c(C(N)=O)c2-c2ccc(C(=O)NCc3ccccc3)s2)o1 [Compound 115, N-benzyl-5-{5-carbamoyl-2-[2-(p-fluorophenyl)ethyl]-6-isobutyl-3-(5-methyl-1,3,4-oxadiazol-2-yl)-4-pyridyl}-2-thenamide]
16 | 13.9 nM | COc1cc(F)cc(CNC(=O)c2ccc(-c3c(C(N)=O)c(CC(C)C)nc(CCc4ccc(F)cc4)c3-c3nnc(C)o3)s2)c1 [Compound 116, N-[(3-fluoro-5-methoxyphenyl)methyl]-5-{5-carbamoyl-2-[2-(p-fluorophenyl)ethyl]-6-isobutyl-3-(5-methyl-1,3,4-oxadiazol-2-yl)-4-pyridyl}-2-thenamide]
17 | 211 nM | Cc1nnc(-c2c(CCc3ccc(F)cc3)nc(CC(C)C)c(C(N)=O)c2-c2ccc(C(=O)N[C@H]3CCc4ccccc43)s2)o1 [Compound 118, (S)-4-(5-((2,3-dihydro-1H-inden-1-yl)carbamoyl)thiophen-2-yl)-6-(4-fluorophenethyl)-2-isobutyl-5-(5-methyl-1,3,4-oxadiazol-2-yl)nicotinamide]
18 | 1.7 nM | Cc1nnc(-c2c(CCc3ccc(F)cc3)nc(CC(C)C)c(C(N)=O)c2-c2ccc(C(=O)N[C@@H]3CCc4cc(F)ccc43)s2)o1 [Compound 120, (R)-4-(5-((5-fluoro-2,3-dihydro-1H-inden-1-yl)carbamoyl)thiophen-2-yl)-6-(4-fluorophenethyl)-2-isobutyl-5-(5-methyl-1,3,4-oxadiazol-2-yl)nicotinamide]
19 | 1 nM | Cc1nnc(-c2c(CCc3ccc(F)cc3)nc(CC(C)C)c(C(N)=O)c2-c2ccc(C(=O)N[C@@H]3CCc4ccc(F)cc43)s2)o1 [Compound 121, (R)-4-(5-((6-fluoro-2,3-dihydro-1H-inden-1-yl)carbamoyl)thiophen-2-yl)-6-(4-fluorophenethyl)-2-isobutyl-5-(5-methyl-1,3,4-oxadiazol-2-yl)nicotinamide]
